Assay [1] concerns the target T1, Alkaline phosphatase, tissue-nonspecific isozyme (Homo sapiens, UniProt P05186).
T1 sequence (P05186 whole entry): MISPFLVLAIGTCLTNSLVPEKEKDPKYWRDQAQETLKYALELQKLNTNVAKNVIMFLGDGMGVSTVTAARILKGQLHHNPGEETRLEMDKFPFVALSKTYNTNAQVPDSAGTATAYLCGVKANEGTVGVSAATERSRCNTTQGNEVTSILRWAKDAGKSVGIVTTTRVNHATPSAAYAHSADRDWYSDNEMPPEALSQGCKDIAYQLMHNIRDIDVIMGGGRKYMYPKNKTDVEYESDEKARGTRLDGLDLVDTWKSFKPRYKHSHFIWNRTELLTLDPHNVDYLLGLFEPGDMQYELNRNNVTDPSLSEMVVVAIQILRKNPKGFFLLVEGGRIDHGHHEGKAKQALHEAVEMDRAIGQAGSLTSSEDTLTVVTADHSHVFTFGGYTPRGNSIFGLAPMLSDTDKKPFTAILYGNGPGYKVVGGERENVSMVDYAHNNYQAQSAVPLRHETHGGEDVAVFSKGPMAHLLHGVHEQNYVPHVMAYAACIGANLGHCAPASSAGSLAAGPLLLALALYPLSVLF
Kind of assay: activation of tissue-nonspecific alkaline phosphatase – biochemical, TNAP isozyme, mouse IAP uHTS hits, selectivity assay for mouse IAP activator project, dose response (AID 488880). Format: functional.

The target in assay [2] is T2, Intestinal-type alkaline phosphatase (Mus musculus, UniProt P24822). Briefly: PubChem AID 488785. In kind it is functional.
T2 sequence (P24822 whole entry): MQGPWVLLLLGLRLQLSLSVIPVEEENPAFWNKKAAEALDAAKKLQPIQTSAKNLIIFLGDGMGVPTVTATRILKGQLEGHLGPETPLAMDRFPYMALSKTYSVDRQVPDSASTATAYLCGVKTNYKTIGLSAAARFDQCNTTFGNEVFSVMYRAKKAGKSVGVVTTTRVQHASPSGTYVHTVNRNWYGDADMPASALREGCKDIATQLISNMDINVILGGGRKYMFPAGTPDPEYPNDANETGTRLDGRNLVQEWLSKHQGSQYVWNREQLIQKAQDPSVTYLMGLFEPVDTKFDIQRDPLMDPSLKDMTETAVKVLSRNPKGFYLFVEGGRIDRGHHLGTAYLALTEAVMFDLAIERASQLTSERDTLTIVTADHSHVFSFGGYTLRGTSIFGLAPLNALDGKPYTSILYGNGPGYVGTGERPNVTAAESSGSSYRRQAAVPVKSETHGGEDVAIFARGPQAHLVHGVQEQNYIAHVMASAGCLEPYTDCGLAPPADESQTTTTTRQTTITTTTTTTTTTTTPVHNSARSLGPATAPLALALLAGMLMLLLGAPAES
Assay [3] concerns the target T3, Intestinal-type alkaline phosphatase (Homo sapiens, UniProt P09923). Briefly: inhibition of human intestinal alkaline phosphatase – biochemical, dose response (AID 488876). Format: functional.
For assay [4], the target named is DNA dC->dU-editing enzyme APOBEC-3G (Homo sapiens, UniProt Q9HC16). Format: functional.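 Further: Dose-response counterscreen measuring inhibition of APOBEC3G DNA deaminase activity, run while confirming APOBEC3A inhibitors.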
DNA dC->dU-editing enzyme APOBEC-3G, sequence (Q9HC16 whole entry): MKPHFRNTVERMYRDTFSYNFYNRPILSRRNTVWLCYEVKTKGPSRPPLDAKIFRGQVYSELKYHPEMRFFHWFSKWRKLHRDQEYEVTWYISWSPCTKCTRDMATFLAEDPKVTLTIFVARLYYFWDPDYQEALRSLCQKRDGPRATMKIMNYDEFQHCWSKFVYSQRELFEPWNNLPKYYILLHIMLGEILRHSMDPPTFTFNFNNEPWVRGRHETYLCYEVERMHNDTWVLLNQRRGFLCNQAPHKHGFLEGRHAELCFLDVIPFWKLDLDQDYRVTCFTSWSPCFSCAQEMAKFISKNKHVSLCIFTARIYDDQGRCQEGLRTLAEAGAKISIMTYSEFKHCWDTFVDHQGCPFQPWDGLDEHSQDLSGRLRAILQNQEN
Assay [5] can be described thus: decrease of insulin promoter-GFP reporter – imaging, high-content screening, mouse beta cells (AID 1628). In kind it is functional. As to conditions: MIN6.
Assay [6] has as its target DNA dC->dU-editing enzyme APOBEC-3A (Homo sapiens, UniProt P31941). Briefly: Dose Response confirmation of small molecule APOBEC3A DNA Deaminase Inhibitors via a fluorescence-based single-stranded DNA deaminase assay. [Related pubchem assays (depositor defined):AID493011, AID493024]. In kind it is functional.
Assay [7] in a line: MIN6 cell viability loss – mouse insulinoma, cytotoxicity control, dose response (AID 2122).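 Further: confirmatory high-throughput counterscreen run to flag cytotoxic compounds.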 In kind it is functional.
For assay [8], the target named is Eukaryotic translation initiation factor 4H (Homo sapiens, UniProt Q15056). Kind of assay: eIF4H binding inhibition – biochemical, uHTS, fluorescence polarization, translation initiation inhibitor project, primary screen (AID 2012). (In general: Fluorescence polarisation rises when a labelled molecule tumbles more slowly, as on binding a larger partner.)
The target in assay [9] is Polyadenylate-binding protein 1 (Homo sapiens, UniProt P11940). Briefly: blockers of PABP interaction with poly(A) – biochemical, fluorescence polarization, […] (AID 2014).
Polyadenylate-binding protein 1, sequence (P11940 whole entry): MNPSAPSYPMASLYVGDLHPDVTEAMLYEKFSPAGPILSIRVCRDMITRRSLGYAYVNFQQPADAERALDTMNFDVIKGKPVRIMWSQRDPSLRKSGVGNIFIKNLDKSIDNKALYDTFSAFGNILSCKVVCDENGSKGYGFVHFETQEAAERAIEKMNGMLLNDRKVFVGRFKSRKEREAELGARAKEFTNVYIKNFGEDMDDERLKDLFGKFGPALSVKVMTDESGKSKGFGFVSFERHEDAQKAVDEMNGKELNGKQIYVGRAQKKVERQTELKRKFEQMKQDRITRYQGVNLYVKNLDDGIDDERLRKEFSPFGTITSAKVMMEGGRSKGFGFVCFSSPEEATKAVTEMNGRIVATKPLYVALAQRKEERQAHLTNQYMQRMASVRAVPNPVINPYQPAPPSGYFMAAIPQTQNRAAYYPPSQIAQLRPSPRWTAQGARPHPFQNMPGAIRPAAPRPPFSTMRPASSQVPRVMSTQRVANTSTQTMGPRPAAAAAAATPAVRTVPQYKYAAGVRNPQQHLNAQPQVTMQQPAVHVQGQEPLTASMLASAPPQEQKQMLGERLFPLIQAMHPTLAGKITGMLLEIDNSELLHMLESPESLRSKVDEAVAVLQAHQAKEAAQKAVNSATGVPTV
The subject of another assay is HEK293. Kind of assay: cells. As to conditions: Homo sapiens.
The next assay deals with Tumor necrosis factor (Homo sapiens, UniProt P01375). Briefly: analog potency on TNFa NF-kB signaling – cell-based, revised, SAR follow-up (AID 2337). In kind it is functional.
Tumor necrosis factor, sequence (P01375 whole entry): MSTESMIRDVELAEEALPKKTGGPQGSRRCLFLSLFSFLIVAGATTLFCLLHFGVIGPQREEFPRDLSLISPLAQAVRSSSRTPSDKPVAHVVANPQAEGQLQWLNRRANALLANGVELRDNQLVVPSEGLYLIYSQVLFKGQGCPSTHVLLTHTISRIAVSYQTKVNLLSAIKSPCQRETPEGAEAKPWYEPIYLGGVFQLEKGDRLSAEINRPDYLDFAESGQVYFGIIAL
Assay [10] can be described thus: restored growth of temperature-sensitive Burl-1 yeast – whole organism, S. cerevisiae, Burl-1 ts mutant, luminescence, counter-screen for SUMOylation pathway inhibitor project, dose response (AID 463199). In kind it is functional. For orientation: The purpose of a counterscreen is to sort out artefacts and off-target activity.
The target of assay [11] is Lysine-specific demethylase 4C (Homo sapiens, UniProt Q9H3R0). Kind of assay: inhibition of JMJD2C H3K9me3 demethylation – biochemical, DELFIA europium, cherry-picked samples, dose response (AID 488835). Format: functional.
Lysine-specific demethylase 4C, sequence (Q9H3R0 whole entry): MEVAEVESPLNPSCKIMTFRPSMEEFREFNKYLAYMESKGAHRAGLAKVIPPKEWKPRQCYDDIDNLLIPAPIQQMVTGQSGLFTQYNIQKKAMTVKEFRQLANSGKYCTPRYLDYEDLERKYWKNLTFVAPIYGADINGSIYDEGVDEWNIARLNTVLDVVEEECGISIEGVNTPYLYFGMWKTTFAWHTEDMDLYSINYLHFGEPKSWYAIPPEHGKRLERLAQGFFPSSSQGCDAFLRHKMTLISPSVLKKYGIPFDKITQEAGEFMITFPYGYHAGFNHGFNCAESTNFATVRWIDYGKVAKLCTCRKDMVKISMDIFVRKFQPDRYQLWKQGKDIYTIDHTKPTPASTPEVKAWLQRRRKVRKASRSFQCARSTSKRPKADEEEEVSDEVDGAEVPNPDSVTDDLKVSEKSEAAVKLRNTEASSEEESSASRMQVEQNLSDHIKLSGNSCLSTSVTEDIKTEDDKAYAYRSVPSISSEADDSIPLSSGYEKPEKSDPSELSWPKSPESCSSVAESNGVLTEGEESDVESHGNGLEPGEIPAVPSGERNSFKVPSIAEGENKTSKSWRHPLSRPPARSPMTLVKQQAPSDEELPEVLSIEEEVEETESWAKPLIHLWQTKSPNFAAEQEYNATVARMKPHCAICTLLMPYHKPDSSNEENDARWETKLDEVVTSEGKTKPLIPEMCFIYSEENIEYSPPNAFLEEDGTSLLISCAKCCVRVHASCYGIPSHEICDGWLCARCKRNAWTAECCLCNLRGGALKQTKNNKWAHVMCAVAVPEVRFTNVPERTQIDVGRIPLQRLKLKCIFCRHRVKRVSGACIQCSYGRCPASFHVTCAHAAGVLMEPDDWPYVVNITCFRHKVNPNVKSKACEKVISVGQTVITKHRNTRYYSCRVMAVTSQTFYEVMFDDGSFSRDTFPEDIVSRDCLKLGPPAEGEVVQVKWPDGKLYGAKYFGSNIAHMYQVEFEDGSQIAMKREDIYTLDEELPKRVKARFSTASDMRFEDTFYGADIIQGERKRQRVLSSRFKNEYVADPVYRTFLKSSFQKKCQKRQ
A further assay addresses T4, Protein RecA (Mycobacterium tuberculosis, UniProt P9WHJ3).
T4 sequence (P9WHJ3 whole entry): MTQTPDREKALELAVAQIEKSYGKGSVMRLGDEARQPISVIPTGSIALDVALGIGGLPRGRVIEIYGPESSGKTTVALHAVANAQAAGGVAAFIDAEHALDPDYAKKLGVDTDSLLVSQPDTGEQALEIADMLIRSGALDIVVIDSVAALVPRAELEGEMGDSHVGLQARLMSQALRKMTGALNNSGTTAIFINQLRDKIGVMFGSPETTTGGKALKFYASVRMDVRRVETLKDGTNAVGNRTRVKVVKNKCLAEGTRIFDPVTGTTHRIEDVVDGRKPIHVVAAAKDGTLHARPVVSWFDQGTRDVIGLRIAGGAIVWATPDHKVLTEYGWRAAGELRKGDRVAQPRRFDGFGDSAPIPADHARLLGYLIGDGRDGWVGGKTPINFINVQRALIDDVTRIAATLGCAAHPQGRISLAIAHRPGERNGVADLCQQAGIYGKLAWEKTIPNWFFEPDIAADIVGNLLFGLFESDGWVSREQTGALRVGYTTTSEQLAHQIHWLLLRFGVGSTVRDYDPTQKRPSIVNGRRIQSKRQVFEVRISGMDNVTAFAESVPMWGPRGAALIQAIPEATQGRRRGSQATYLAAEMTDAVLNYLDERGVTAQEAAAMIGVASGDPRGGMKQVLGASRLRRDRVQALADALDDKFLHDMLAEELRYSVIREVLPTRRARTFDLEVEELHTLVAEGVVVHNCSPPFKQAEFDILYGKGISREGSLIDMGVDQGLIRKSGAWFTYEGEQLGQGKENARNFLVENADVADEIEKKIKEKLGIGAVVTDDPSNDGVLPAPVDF
Kind of assay: Fluorescence Cell-Free Homogeneous Dose Retest to Identify Inhibitors of RecA-Intein Splicing Activity. [Related pubchem assays (depositor defined):AID2097, AID2223, AID489010, AID492950]. Format: functional.

In assay [12] the target is T5, Replicative DNA helicase DnaB (Mycobacterium tuberculosis, UniProt P9WMR3).
T5 sequence (P9WMR3 whole entry): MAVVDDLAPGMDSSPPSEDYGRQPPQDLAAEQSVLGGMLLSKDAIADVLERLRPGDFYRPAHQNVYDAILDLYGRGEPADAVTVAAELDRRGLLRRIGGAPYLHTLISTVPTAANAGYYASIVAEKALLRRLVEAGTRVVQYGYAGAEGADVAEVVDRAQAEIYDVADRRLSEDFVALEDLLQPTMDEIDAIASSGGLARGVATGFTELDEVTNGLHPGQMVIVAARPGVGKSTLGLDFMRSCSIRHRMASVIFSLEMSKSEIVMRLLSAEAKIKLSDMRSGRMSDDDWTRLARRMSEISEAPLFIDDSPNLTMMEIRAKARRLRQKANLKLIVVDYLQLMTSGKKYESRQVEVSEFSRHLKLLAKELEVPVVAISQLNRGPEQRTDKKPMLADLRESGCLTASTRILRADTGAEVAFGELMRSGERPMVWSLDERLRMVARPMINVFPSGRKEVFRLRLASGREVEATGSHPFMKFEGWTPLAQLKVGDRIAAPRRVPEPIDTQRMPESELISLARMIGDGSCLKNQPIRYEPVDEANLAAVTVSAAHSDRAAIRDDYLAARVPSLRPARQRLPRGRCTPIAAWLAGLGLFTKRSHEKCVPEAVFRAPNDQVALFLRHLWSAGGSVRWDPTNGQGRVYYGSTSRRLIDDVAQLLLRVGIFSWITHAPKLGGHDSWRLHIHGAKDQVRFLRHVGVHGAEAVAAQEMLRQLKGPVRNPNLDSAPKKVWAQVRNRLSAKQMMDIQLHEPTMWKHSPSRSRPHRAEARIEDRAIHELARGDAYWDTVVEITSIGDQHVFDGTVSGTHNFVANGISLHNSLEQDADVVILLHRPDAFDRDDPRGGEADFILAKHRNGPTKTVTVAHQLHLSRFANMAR
Briefly: DnaB intein splicing inhibitors, dose response, biochemical, cell-free fluorescence (AID 449749). Format: functional.

Assay [13] concerns the target Lysine-specific demethylase 4A (Homo sapiens, UniProt O75164). Briefly: inhibition of JMJD2A H3K9me3 demethylation – biochemical, DELFIA europium, cherry-picked samples, selectivity assay for GASC-1 inhibitor project, dose response (AID 488840).
Assay [14] concerns the target T3, Intestinal-type alkaline phosphatase. Briefly: activation of human intestinal alkaline phosphatase – biochemical, dose response (AID 488873). In kind it is functional.
The next assay has as its target Large T antigen (Simian virus 40, UniProt P03070). Format: functional, Betapolyomavirus macacae.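 Further: Confirmatory-stage PubChem screen for compounds that inhibit SV40 T antigen.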
Assay [15] has as its target T1, Alkaline phosphatase, tissue-nonspecific isozyme. Kind of assay: inhibition of tissue-nonspecific alkaline phosphatase – biochemical, dose response (AID 488882). In kind it is functional.
The target in assay [16] is T3, Intestinal-type alkaline phosphatase. Briefly: inhibition of human intestinal alkaline phosphatase – biochemical, luminescent, uHTS hits, set 2, dose response (AID 488793). Format: functional.
The target in the next assay is T6, Cytochrome P450 1A2 (Homo sapiens, UniProt P05177).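 Further: PubChem cytochrome P450 panel assay, CYP1A2 panel member.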
T6 sequence (P05177 whole entry): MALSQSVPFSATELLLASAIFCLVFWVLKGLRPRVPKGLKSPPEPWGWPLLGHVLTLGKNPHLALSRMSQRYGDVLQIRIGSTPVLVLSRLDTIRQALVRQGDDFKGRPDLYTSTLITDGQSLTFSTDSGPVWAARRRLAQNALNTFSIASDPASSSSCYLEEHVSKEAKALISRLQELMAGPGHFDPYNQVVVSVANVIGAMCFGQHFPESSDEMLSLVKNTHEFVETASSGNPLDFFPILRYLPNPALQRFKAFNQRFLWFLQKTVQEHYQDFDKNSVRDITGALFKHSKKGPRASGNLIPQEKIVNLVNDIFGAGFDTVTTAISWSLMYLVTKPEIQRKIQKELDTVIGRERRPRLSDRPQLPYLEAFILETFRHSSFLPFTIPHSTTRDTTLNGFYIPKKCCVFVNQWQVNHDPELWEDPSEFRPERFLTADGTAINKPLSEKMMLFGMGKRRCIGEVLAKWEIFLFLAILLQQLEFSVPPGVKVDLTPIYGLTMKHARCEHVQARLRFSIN

For assay [17], the target named is T2, Intestinal-type alkaline phosphatase. Briefly: PubChem AID 488874. In kind it is functional.
For assay [18], the target named is T3, Intestinal-type alkaline phosphatase. Briefly: Dose Response confirmation of uHTS hits from a small molecule inhibitors of human intestinal alkaline phosphatase via a luminescent assay. [Related pubchem assays (depositor defined):AID2544, AID2574]. Format: functional.
The target of assay [19] is T1, Alkaline phosphatase, tissue-nonspecific isozyme. Briefly: TNAP enzyme inhibition by screening hits, dose response, selectivity assay for mouse IAP inhibitor project, biochemical, human TNAP, uHTS hits (AID 488906). In kind it is functional.

Active and inactive are the calls of the source.

T3 sequence (P09923 whole entry): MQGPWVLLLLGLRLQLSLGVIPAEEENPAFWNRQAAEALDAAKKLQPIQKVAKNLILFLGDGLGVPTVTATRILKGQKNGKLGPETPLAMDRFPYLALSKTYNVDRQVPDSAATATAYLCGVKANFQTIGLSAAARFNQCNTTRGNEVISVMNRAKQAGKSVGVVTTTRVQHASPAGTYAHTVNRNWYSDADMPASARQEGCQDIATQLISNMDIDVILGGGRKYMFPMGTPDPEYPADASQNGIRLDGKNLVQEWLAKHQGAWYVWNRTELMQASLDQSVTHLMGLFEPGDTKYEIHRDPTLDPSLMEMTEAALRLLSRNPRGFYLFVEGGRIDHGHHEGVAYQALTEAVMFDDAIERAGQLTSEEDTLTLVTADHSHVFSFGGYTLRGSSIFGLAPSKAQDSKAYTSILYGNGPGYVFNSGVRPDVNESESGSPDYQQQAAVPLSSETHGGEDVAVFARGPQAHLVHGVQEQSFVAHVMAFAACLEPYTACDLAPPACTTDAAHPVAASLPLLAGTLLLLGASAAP
Lysine-specific demethylase 4A, sequence (O75164 whole entry): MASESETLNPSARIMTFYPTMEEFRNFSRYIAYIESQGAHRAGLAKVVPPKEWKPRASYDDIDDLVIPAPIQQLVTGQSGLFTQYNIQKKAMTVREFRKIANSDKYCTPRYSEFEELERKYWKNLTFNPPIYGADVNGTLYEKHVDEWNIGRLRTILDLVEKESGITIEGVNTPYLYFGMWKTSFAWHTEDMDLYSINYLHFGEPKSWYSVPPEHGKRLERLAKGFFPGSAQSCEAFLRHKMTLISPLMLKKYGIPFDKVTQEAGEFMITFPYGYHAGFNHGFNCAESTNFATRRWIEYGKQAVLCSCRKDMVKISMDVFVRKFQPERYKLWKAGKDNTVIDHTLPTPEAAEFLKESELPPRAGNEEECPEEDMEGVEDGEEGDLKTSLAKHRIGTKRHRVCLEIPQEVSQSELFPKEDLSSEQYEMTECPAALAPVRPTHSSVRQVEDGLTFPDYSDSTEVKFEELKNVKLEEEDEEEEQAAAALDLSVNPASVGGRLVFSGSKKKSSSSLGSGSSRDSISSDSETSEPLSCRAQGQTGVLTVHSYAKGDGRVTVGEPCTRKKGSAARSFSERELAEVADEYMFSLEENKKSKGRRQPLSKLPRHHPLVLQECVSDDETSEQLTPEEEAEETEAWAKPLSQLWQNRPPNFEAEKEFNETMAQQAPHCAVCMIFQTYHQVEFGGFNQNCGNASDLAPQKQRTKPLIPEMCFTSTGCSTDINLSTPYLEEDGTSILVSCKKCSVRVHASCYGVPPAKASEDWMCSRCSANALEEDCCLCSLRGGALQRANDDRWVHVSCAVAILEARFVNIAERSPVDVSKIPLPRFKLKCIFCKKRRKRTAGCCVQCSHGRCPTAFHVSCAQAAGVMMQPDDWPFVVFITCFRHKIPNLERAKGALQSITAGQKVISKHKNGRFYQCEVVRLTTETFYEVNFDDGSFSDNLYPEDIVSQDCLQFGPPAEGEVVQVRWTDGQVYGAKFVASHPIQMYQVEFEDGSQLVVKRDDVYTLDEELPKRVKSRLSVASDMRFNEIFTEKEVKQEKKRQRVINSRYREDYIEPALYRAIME
DNA dC->dU-editing enzyme APOBEC-3A, sequence (P31941 whole entry): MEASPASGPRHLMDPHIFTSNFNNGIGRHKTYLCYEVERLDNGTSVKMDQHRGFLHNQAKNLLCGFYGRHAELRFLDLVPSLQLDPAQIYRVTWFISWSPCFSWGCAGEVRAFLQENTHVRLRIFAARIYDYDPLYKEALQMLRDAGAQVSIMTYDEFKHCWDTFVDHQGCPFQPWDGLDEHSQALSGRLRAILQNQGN

Consider `N#Cc1cccc(NC(=O)CCNS(=O)(=O)c2ccc3nc(O)oc3c2)c1`, for which the EC50 in [1] is > 100 µM (inactive). The IC50 in assay [2] was 21.7 µM (active); in [3], > 100 µM (inactive).
On to `CCCCCn1ccc(=N)cc1`, for which the IC50 in [4] was 1.92 µM (active); in assay [5], 3.31 µM (active); in [6], 1.3 µM (active); in assay [7], 2.58 µM (active); in assay [8], > 100 µM (inactive); in [9] it was 2.73 µM (active).
In the case of `CC(=O)c1ccc(N2CCN(S(=O)(=O)c3ccc4c(c3)CCN4C(=O)C3CC3)CC2)cc1`, the IC50 in the assay with HEK293 was > 20 µM (inactive); on Tumor necrosis factor, 16.6 µM (active).
`COc1ccc2[nH]cc(C(=O)C(=O)N3CCCCC3)c2c1`: the AC50 in assay [10] was 93.6 µM (active).
Regarding `O=c1[nH]cc(/N=C/c2cc(Cl)cc(Cl)c2O)c(=O)[nH]1`, the figures for the AC50 in assay [11], in [12] and in assay [13] were 0.749 µM (active), 4.92 µM (active) and 18.1 µM (active), respectively. At Protein RecA, the EC50 was 4.14 µM (active).
In the case of `N#C/C(=C\c1ccc(O)c(O)c1)C(=O)c1ccc(O)c(O)c1`, the EC50 in assay [14] was 6.36 µM (active). Further, the IC50 is 0.82 µM (active) at Large T antigen; 9.49 µM (active) in assay [15]; 2.68 µM (active) in assay [16]; 0.259 µM (active) in assay [17]; 7.13 µM (active) in assay [2]; 4.41 µM (active) in assay [18]. Further, in assay [19], the IC50 is > 100 µM (inactive). Also, the AC50 on Cytochrome P450 1A2 is 31.6 µM (inconclusive).

Usually EC50 stands for the concentration at which the effect is half-maximal. As usually defined, the IC50 is the concentration needed to halve the response being measured. In general, AC50 refers to the concentration giving half of the maximal activity seen.

The values are drawn from ChEMBL document CHEMBL1201862, “PubChem BioAssay data set” (2004).
